Data reported in ChEMBL document CHEMBL1155190, “Identification of a cell-active non-peptide sirtuin inhibitor containing N-thioacetyl lysine” (Bioorg Med Chem Lett, 2009).

Experiments:
[1] = target: T1, NAD-dependent protein deacetylase sirtuin-1 (Homo sapiens, UniProt Q96EB6); experiment: Inhibition of human recombinant SIRT1 after 60 mins by fluorimetric analysis
T1 sequence (Q96EB6 whole entry): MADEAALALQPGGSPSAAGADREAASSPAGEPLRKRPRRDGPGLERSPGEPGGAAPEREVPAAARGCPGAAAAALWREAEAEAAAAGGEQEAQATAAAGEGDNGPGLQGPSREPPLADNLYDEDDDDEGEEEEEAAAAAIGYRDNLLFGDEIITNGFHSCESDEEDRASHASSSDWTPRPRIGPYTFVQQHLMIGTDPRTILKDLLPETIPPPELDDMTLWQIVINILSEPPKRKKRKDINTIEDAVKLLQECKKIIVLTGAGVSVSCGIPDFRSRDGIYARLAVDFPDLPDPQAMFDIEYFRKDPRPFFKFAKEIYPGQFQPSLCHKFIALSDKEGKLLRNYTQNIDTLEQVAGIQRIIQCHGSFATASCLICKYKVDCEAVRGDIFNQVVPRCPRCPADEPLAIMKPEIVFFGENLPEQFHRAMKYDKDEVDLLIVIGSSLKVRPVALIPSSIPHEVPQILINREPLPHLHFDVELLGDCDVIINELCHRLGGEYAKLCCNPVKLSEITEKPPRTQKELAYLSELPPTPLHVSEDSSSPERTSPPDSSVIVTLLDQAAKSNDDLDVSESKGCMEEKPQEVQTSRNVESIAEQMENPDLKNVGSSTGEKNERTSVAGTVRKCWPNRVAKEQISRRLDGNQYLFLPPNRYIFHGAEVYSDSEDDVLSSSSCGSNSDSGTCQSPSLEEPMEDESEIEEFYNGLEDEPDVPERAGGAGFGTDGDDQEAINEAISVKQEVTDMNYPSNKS

[2] = target: T2, NAD-dependent protein deacetylase sirtuin-2 (Homo sapiens, UniProt Q8IXJ6); experiment: Inhibition of human recombinant SIRT2 after 60 mins by fluorimetric analysis
T2 sequence (Q8IXJ6 whole entry): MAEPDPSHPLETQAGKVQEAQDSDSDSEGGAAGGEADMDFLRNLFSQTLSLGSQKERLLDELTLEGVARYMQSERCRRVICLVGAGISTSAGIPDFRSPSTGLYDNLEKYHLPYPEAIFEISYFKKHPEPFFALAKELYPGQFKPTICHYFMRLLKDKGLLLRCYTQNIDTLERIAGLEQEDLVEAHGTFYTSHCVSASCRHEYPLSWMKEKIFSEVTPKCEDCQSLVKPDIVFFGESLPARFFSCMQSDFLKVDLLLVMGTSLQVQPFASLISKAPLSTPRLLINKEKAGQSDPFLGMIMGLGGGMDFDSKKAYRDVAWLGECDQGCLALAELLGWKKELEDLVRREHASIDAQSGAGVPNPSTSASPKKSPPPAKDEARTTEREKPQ

[3] = target: T3, NAD-dependent protein deacetylase sirtuin-3, mitochondrial (Homo sapiens, UniProt Q9NTG7); experiment: Inhibition of human recombinant SIRT3 after 60 mins by fluorimetric analysis
T3 sequence (Q9NTG7 whole entry): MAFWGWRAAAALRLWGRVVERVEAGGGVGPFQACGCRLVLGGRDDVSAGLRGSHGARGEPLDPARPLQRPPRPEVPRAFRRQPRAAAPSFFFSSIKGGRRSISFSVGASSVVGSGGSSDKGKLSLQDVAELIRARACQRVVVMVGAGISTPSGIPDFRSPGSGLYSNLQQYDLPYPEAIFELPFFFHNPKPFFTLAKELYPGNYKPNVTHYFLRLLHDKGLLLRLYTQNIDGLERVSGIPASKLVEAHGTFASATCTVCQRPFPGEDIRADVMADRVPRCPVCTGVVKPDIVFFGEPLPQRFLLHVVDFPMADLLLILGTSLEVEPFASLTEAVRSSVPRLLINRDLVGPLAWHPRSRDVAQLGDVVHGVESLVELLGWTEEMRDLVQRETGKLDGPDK

IC50 [1]: 2700 nM | IC50 [2]: 23 µM | IC50 [3]: > 100 µM
Structure (SMILES): CC(=S)NCCCC[C@H](NC(=O)OCc1ccccc1)C(=O)Nc1ccccc1
